Measurements reported in patent US8304418B2, “Pyrazolopyrimidinone kinase inhibitor” (Agennix AG, priority 2007, dated 2012).
Like-named read-outs stand apart in the source and are kept apart here.

How the values were obtained:
A2780 = assay: Cell proliferation, A2780; format: cell-based; conditions: Homo sapiens
Method: (§1) The assays used for determining the properties of the kinase inhibitors were performed in accordance with standard procedures well known to those skilled in the art. For example, assays for determining inhibitory activity on CDKs or in cellular assays are described in WO 00/218962, WO 2005/026129, and WO 2005/063765. Solubility assays at pH 7.4 were essentially performed as described by Avdeef, A. in Pharmacokinetic Optimization in Drug Research; Testa, B.; van de Waterbeemd, H.; Folkers, G.; Guy, R. Eds.; Wiley-VHC: Zurich, 2001; pp 305-326. PAMPA permeability assays at pH 7.4 were essentially performed as described in Kansy et al., J. Med. Chem. 41: 1007-10, 1998.
(§2) When compared to IC50s of cellular proliferation by compound I, (as determined by the methods described earlier), the corresponding IC50 for cellular inhibition of CDK9-dependent RNAPII phosphorylation is approximately similar.

panel of non-CDK kinases = assay: Inhibitory activity against a panel of non-CDK kinases; format: biochemical
Method: as §1

[1] = tested on: cell lines A2780, HCT-116, HT-29, HepG2, NCI/ADR-RES, OVCAR3, H460, IMR-90, T98G, A549 among others; assay: Inhibition of proliferation in a set of cancer-model cell lines; format: cell-based; conditions: read-out: IC50 values, inhibition of proliferation (range over cell lines)
Method: as §1

MDA-MB-468 = assay: Cell proliferation, MDA-MB-468; format: cell-based; conditions: Homo sapiens
Method: as §1, §2

[2] = tested on: CDK4/6-specific phosphorylation of Rb on serine 780; assay: In-cell Rb phosphorylation (immunoblot); format: cell-based, human; conditions: Homo sapiens, read-out: IC50 (uM) - Rb-5 phosphorylation
Source text: This set of assays represents CDKs involved in cell cycle progression (CDK1, 4/6), and the “regulatory CDK” (CDK9) which is involved in transcriptional regulation.
The following cancer cell lines were investigated in the course of these studies: A2780 (ovarian), HCT116 (colon), RPMI8226 (myeloma), SKMel28 (melanoma), Colo205 (colorectal), MDA-MB-435 (melanoma), MDA-MB-453 (breast, carcinoma), MDA-MB-468 (breast, adenocarcinoma), A549 (lung), Raji (lymphoma, Burkitt). Cell lines were obtained from public repositories.
CDK4/6-specific phosphorylation of Rb on serine 780 (Ser780phos). Asynchronous growing cells were treated with an appropriate concentration of test compound or DMSO for 1 hour. Proteins were extracted using the AllPrep RNA/Protein kit according to the manufacturer's recommendations (Qiagen, Germany). Rb was immunoprecipitated over night using Ab05 antibody (Oncogene Inc.). Proteins were separated by SDS-PAGE, blotted to PVDF membranes and analyzed with antibodies against total (sc-102; Santa Cruz) or Ser780-phosphorylated Rb proteins (Cell Signalling). Visualization and quantification was performed as above.

Sk-mel-28 = assay: Cell proliferation, Sk-mel-28; format: cell-based; conditions: Homo sapiens
Method: as §1, §2

CDK4 = CDK4 (Homo sapiens, UniProt P11802); assay: Biochemical CDK4 inhibition assay
Method: as §1

HCT116 = assay: Cell proliferation, HCT116; format: cell-based; conditions: Homo sapiens, HCT-116
Method: as §1, §2

CDK9 = CDK9 (Homo sapiens, UniProt P50750); assay: Biochemical CDK9 inhibition assay; conditions: read-out: enzymatic IC50 of CDK9 activity
Method: as §1

CDK4, sequence (P11802 whole entry): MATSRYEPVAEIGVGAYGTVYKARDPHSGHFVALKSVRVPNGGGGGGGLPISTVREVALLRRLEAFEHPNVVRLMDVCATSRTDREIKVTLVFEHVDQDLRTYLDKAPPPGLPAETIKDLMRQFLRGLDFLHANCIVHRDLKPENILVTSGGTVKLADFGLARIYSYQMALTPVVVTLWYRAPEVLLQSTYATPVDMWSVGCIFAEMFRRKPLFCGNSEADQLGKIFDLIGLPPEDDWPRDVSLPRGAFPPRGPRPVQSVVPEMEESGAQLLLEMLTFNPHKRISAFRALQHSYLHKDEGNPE
CDK4, sequence (P24385 whole entry partner): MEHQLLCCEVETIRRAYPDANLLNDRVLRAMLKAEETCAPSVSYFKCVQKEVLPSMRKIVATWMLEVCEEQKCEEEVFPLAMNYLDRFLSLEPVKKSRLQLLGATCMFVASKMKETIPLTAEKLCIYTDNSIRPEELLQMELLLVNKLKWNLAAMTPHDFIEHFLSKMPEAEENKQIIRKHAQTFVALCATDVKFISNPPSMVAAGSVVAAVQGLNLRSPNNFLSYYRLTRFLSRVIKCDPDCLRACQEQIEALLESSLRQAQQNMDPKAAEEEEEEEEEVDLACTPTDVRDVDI
CDK9, sequence (P50750 whole entry): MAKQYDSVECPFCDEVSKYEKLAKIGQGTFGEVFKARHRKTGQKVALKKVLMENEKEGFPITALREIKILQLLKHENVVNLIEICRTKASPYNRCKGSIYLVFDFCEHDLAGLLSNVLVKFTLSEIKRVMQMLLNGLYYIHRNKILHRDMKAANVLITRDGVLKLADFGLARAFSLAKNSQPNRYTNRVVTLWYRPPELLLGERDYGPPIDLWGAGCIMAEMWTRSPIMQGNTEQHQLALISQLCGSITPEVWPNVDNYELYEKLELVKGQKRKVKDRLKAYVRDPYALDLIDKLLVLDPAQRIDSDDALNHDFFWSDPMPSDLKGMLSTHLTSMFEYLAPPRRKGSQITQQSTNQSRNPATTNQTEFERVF
CDK9, sequence (O60563 whole entry partner): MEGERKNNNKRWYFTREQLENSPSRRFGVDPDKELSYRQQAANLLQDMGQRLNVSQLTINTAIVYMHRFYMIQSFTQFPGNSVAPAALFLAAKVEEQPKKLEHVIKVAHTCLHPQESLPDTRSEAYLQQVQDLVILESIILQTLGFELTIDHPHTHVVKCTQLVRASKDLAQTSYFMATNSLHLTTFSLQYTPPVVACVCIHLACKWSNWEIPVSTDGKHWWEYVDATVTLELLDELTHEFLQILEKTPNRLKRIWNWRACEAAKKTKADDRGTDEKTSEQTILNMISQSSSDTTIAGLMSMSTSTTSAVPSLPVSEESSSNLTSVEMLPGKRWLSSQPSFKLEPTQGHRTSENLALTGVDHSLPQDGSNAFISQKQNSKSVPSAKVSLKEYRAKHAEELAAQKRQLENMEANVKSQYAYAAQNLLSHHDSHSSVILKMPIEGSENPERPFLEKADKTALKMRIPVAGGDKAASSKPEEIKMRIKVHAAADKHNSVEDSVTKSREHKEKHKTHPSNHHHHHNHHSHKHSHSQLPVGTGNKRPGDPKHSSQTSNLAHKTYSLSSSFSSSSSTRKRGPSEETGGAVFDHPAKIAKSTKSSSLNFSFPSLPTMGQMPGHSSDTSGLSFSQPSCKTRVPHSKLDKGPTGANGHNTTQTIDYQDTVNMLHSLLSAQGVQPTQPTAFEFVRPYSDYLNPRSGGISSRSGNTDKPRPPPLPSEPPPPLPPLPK

With CC(C)c1nn(-c2c(Cl)cncc2Cl)c2nc(Cc3ccc(CN4CCCC4)c(O)c3)[nH]c(=O)c12 [Compound I, 1-(3,5-dichloropyridin-4-yl)-6-(3-hydroxy-4-pyrrolidinomethyl-phenyl)methyl-3-isopropyl-pyrazolo[3,4-d]pyrimidin-4-one] the IC50 (A2780) was about 0.1 µM, the “inhibitory activity against non-CDK kinases” value (panel of non-CDK kinases) was “low inhibitory activity” and the IC50 [1] was 10 to 800 nM. For the same molecule, the IC50 (MDA-MB-468) was about 0.3 µM, the IC50 ([2]; A2780, 1 h, A2780 cells) was about 0.5 µM and the IC50 ([2]; HCT-116, 1 h, HCT116 cells) was about 5 µM. For the same molecule, the IC50 ([2]; MDA-MB-435, 1 h, MDA-MB-435 cells) was about 3 µM, the IC50 ([2]; RPMI-8226, 1 h, RPMI8226 cells) was about 5 µM and the IC50 ([2]; SK-MEL-28, 1 h, Sk-mel-28 cells) was about 3 µM. It also gave an IC50 (Sk-mel-28) of about 0.3 µM, an IC50 (CDK4) of about 50 nM and an IC50 (HCT116) of about 0.1 µM. It also gave an IC50 (CDK9) of 1 to 10 nM.
